Earlier results on one molecule are cited in US12115173B2 (Elba Laboratories, priority 2021, dated 2024).

On to `O=C(O)CO` [glycolic acid], for which the pKa result is “about 3.8”.
